Assays:
ABCG1 = assay: qRT-PCR of LXR target gene ABCG1 in RAW264.7 macrophages; format: cell-based; settings: vehicle-treated cells set to 1
Procedure: RAW264.7 cells were obtained from the National Infrastructure of Cell Line Resource of Beijing, China, and the cells used for the experiment were cultured for at least three passages. Dulbecco’s Modified Eagle’s Medium (DMEM)-F12 medium containing 10% fetal bovine serum (FBS) was employed to culture the RAW264.7 cells. RAW264.7 cells were incubated at 37°C with 5% carbon dioxide. The RAW264.7 cells were plated at 2.5×10^5 cells/well (6-well plates), 6.0×10^4 cells/well (24-well plates), and 10^4 cells/well (96-well plates). The RAW264.7 cells were plated and grown overnight; then the medium was removed and fresh DMEM-F12 contained with 0.1% DMSO (control; n=3 ) or TPHP at the concentrations of 1–20,000 nM ( n=3 per group) was added. […] Then the cells were used for the quantitative reverse transcription (qRT)-PCR, cellular cholesterol efflux assay, and foam cell formation experiment.
Total RNA was isolated from RAW264.7 cells and mouse peritoneal macrophages using TRIzol reagent according to the manufacturer’s instructions. Then a Nanovue Plus™ spectrophotometer (GE Healthcare Life Science) was used to analyze the concentration, quality, and purity of the RNA. Total RNA ( 1μg ) was mixed with oligo deoxythymine (dT) ( 1μL ) at 70°C for 5 min and then combined with a mixture containing Moloney murine leukemia virus (MMLV) reverse transcriptase ( 1μL ), deoxy-ribonucleoside triphosphate (dNTP) ( 1.25μL ), Recombinant RNasin® Ribonuclease Inhibitor (Promega) ( 0.65μL ), and MMLV buffer ( 5μL ) at 42°C for 60 min. The SYBR® Green PCR Kit (TOYOBO) was used for RT-PCR analysis. Real-time fluorescence detection was performed using the StepOnePlus™ sequence detection system (Applied Biosystems). […] The following primers were designed and purchased from Sangon Biotech:
• actin: 5′-[…]-3′ and 5′-[…]-3′ ATP-binding cassette transporter A1 (ABCA1): 5′-[…]-3′ and 5′-[…]-3′ • ATP-binding cassette transporter G1 (ABCG1): 5′-[…]-3′ and 5′-[…]-3′.

[1] = tested on: mouse peritoneal macrophages; assay: Foam cell formation in peritoneal macrophages isolated from exposed C57BL/6 mice; format: in vivo; settings: 200 mg/kg BW for 7 d, p<0.05
Procedure: RAW264.7 cells or mouse peritoneal macrophages were plated in 24-well plates at 6.0×10^4 cells/well and grown overnight. Then the medium was removed and fresh DMEM-F12 containing 10% FBS, 20μg/mL oxidized low-density lipoprotein (ox-LDL), and 0.1% DMSO (control; n=3 ) or TPHP at the concentration of 1–20,000 nM ( n=3 per group) was added. The cells were washed with PBS, followed by fixing in 4% paraformaldehyde for 30 min and staining with boron-dipyrromethene (BODIPY) 493/503 ( 20μg/mL ) and 4′,6-diamidino-2-phenylindole (DAPI; 100 ng/mL ) for 10 min. Foam cell formation was analyzed by high-content microscopy using ImageXpress® Micro XL (Molecular Devices). From each well, 25 image fields were scanned, and MetaXpress® (Molecular Devices) was used to quantify compartmentalized changes in the fluorescence of each cell.
All experiments related to animals were approved by the institutional animal care and use committee of Peking University and followed the guidelines for animal experiments of the university as well as for experimental animals in China. […] Body weight (BW) was measured every week during the dosing period. […] Considering that this study assessed the effects of short-term exposure to TPHP, whereas humans are exposed to TPHP over a lifelong period, the present study used exposure doses that were higher than that of human exposure from house dust. […]

## O=P(Oc1ccccc1)(Oc1ccccc1)Oc1ccccc1 [TPHP, triphenyl phosphate]
ABCG1; 100 nM, p<0.05
  ABCG1 gene expression relative to control: 0.87±0.05 fold
ABCG1; 1,000 nM, p<0.05
  ABCG1 gene expression relative to control: 0.80±0.06 fold
ABCG1; 5,000 nM, p<0.01
  ABCG1 gene expression relative to control: 0.52±0.02 fold
ABCG1; 10,000 nM, p<0.01
  ABCG1 gene expression relative to control: 0.42±0.05 fold
ABCG1; 20,000 nM, p<0.01
  ABCG1 gene expression relative to control: 0.28±0.02 fold
[1]
  Foam cell staining in peritoneal macrophages relative to control: 2.88±0.95 fold
